Source: US20260232678A1, “Nasal Spray for Phosphodiesterase Inhibitors” (Cyrano Therapeutics, Inc., priority 2022, published 2026)

How the values were obtained:
[1] = test system: chemosensory dysfunction associated with Parkinson's disease; experiment: Treatment of Parkinson's disease chemosensory dysfunction; type: in vivo, human; details: about 0.4 ml per day of 3.1 mg/ml theophylline, nasal spray twice daily in each naris, 7 days
Protocol: An adult human subject was treated for chemosensory dysfunction associated with Parkinson's disease. […] The subject was administered about 0.4 ml per day of a liquid composition comprising theophylline at a concentration of 3.1 mg/ml in a nasal spray device described herein. The subject administered the nasal spray twice daily in each naris.

[2] = cited from earlier work
[3] = test system: phantosmia and phantogeusia; experiment: Treatment of phantosmia in a subject; type: in vivo; details: thioridazine composition in nasal spray device, 3× daily in each naris
From the text: A subject is admitted to a clinic for phantosmia and phantogeusia. The subject is prescribed a thioridazine composition in a nasal spray device described herein. The subject administers the nasal spray in an effective dose 3× daily in each naris. The nasal spray is characterized by a spray containing a D50 of about 15 μm to about 24 μm, a D90 of from about 30 μm to about 50 μm and where less than about 3% of the droplets in the plume of a spray have a size of less than about 10 μm.

SMILES	ability to taste and smell [1]	solubility in ethanol ([2]; ethanol)	solubility in water ([2]; water)	symptoms of the phantosmia and phantogeusia [3]
Cn1c(=O)c2[nH]cnc2n(C)c1=O [Theophylline, theophylline]	regained their ability to taste and smell	14 to 15 mg/mL	7 to 8 mg/mL	
CSc1ccc2c(c1)N(CCC1CCCCN1C)c1ccccc1S2 (stereo not shown) [thioridazine]				reduced symptoms
